Assay results as given in paper PMC5290327, “SC83288 is a clinical development candidate for the treatment of severe malaria” (Nature Communications, 2017).

Assays:
Test in all cases: KINOMEscan
Assay type in all cases: binding
Conditions in all cases: read-out: Remaining enzyme activity
ABL1(F317I) = target: T1, ABL1(F317I) (Homo sapiens, UniProt P00519, F317I)
T1 construct: purchased Ambit (DiscoverX) KINOMEscan; Cerep
How it was run: (§1)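 Immobilized ligand beads, biotin-blocked and washed in SeaBlock buffer with BSA, Tween 20 and DTT, are incubated with DNA-tagged kinase and 10 μM SC81458. Compound occupying the active site lowers bead-bound kinase, which is quantified by qPCR of the tag.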

ABL1(M351T) = target: T2, ABL1(M351T) (Homo sapiens, UniProt P00519, M351T)
T2 construct: purchased Ambit (DiscoverX) KINOMEscan; Cerep
How it was run: as §1

ACVR2a = target: T3, ACVR2a (Homo sapiens, UniProt P27037)
T3 construct: purchased Ambit (DiscoverX) KINOMEscan; Cerep
How it was run: as §1

ALK = target: T4, ALK (Homo sapiens, UniProt Q9UM73)
T4 construct: purchased Ambit (DiscoverX) KINOMEscan; Cerep
T4 sequence (Q9UM73 19-1620): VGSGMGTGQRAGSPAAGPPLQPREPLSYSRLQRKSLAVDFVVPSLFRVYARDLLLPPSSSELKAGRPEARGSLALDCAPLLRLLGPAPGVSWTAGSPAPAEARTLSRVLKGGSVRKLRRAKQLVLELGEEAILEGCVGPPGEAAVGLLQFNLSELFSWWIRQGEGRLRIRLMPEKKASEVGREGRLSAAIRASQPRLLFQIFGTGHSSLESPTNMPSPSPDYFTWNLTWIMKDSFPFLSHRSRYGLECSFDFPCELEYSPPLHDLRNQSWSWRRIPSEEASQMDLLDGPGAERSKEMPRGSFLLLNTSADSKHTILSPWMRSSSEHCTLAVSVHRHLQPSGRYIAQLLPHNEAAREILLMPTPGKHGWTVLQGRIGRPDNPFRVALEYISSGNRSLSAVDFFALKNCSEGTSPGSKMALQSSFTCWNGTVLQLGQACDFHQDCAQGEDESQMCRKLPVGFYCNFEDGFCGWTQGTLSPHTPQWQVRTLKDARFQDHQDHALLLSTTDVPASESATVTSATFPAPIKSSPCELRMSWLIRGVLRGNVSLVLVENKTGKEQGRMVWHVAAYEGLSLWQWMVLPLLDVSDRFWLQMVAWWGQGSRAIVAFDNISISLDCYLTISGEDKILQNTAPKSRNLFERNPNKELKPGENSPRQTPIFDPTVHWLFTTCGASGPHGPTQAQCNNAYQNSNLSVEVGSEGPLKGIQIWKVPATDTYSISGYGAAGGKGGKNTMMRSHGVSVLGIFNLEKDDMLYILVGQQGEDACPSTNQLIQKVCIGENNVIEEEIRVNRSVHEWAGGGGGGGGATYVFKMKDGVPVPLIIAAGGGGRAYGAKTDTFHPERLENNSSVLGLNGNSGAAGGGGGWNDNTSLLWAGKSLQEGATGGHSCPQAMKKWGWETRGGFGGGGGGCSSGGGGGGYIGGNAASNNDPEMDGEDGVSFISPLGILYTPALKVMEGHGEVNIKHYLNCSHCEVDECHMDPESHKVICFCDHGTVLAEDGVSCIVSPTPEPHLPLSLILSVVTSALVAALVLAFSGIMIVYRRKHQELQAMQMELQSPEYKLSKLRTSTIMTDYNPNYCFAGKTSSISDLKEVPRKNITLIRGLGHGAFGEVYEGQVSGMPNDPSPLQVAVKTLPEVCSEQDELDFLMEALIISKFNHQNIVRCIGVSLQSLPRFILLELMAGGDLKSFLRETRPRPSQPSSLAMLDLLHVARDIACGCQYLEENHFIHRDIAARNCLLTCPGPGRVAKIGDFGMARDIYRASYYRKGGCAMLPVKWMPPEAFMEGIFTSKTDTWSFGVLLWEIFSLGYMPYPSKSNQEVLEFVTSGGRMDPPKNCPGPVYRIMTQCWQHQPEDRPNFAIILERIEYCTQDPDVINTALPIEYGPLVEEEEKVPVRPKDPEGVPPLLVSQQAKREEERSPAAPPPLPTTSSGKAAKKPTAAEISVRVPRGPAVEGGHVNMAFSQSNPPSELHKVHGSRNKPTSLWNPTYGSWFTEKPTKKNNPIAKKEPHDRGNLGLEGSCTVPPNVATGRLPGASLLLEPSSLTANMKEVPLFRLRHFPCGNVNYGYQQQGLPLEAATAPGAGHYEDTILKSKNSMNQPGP
How it was run: as §1

CDK2 = target: T5, CDK2 (Homo sapiens, UniProt P24941)
T5 construct: purchased Ambit (DiscoverX) KINOMEscan; Cerep
How it was run: as §1

CIT = target: T6, CIT (Homo sapiens, UniProt O14578)
T6 construct: purchased Ambit (DiscoverX) KINOMEscan; Cerep
How it was run: as §1

CLK3 = target: T7, CLK3 (Homo sapiens, UniProt P49761)
T7 construct: purchased Ambit (DiscoverX) KINOMEscan; Cerep
How it was run: as §1

DRAK2 = target: T8, DRAK2 (Homo sapiens, UniProt O94768)
T8 construct: purchased Ambit (DiscoverX) KINOMEscan; Cerep
How it was run: as §1

DYRK1b = target: T9, DYRK1b (Homo sapiens, UniProt Q9Y463)
T9 construct: purchased Ambit (DiscoverX) KINOMEscan; Cerep
How it was run: as §1

EPHA2 = target: T10, EPHA2 (Homo sapiens, UniProt P29317)
T10 construct: purchased Ambit (DiscoverX) KINOMEscan; Cerep
How it was run: as §1

EPHA6 = target: T11, EPHA6 (Homo sapiens, UniProt Q9UF33)
T11 construct: purchased Ambit (DiscoverX) KINOMEscan; Cerep
How it was run: as §1

EPHB4 = target: T12, EPHB4 (Homo sapiens, UniProt P54760)
T12 construct: purchased Ambit (DiscoverX) KINOMEscan; Cerep
T12 sequence (P54760 16-987): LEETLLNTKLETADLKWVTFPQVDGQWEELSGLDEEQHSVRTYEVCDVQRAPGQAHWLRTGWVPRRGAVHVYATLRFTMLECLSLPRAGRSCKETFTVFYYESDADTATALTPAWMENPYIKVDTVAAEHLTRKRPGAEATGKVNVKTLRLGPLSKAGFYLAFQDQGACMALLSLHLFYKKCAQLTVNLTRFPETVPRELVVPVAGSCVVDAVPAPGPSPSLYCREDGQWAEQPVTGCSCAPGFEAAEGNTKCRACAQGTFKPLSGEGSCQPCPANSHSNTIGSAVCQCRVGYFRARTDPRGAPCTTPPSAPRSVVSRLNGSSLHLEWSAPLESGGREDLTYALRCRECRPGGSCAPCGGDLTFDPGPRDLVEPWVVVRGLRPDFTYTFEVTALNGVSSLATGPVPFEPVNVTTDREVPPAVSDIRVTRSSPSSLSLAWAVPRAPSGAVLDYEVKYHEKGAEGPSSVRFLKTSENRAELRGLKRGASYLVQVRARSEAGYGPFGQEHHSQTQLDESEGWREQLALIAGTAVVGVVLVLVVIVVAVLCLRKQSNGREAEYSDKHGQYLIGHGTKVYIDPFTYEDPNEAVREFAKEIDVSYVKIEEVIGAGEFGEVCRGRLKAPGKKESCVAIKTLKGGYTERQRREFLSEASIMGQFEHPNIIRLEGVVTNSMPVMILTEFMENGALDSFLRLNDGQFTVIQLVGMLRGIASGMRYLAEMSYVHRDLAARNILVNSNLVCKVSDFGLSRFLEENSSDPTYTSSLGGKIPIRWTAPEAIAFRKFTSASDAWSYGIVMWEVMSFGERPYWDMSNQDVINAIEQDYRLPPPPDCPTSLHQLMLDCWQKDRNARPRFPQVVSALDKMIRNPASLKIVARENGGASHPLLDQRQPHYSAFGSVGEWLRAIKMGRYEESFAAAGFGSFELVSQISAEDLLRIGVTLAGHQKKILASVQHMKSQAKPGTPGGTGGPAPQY
How it was run: as §1

FLT3 = target: T13, FLT3 (Homo sapiens, UniProt P36888)
T13 construct: purchased Ambit (DiscoverX) KINOMEscan; Cerep
How it was run: as §1

GRK1 = target: T14, GRK1 (Homo sapiens, UniProt Q15835)
T14 construct: purchased Ambit (DiscoverX) KINOMEscan; Cerep
How it was run: as §1

HCK = target: T15, HCK (Homo sapiens, UniProt P08631)
T15 construct: purchased Ambit (DiscoverX) KINOMEscan; Cerep
How it was run: as §1

ITK = target: T16, ITK (Homo sapiens, UniProt Q08881)
T16 construct: purchased Ambit (DiscoverX) KINOMEscan; Cerep
How it was run: as §1

KIT(V559D, V654A) = target: T17, KIT(V559D, V654A) (Homo sapiens, UniProt P10721, V559D/V654A)
T17 construct: purchased Ambit (DiscoverX) KINOMEscan; Cerep
How it was run: as §1

MAP3K3 = target: T18, MAP3K3 (Homo sapiens, UniProt Q99759)
T18 construct: purchased Ambit (DiscoverX) KINOMEscan; Cerep
How it was run: as §1

MET(M1250T) = target: T19, MET(M1250T) (Homo sapiens, UniProt P08581, M1250T)
T19 construct: purchased Ambit (DiscoverX) KINOMEscan; Cerep
How it was run: as §1

MST4 = target: T20, MST4 (Homo sapiens, UniProt Q9P289)
T20 construct: purchased Ambit (DiscoverX) KINOMEscan; Cerep
T20 sequence (Q9P289 whole entry): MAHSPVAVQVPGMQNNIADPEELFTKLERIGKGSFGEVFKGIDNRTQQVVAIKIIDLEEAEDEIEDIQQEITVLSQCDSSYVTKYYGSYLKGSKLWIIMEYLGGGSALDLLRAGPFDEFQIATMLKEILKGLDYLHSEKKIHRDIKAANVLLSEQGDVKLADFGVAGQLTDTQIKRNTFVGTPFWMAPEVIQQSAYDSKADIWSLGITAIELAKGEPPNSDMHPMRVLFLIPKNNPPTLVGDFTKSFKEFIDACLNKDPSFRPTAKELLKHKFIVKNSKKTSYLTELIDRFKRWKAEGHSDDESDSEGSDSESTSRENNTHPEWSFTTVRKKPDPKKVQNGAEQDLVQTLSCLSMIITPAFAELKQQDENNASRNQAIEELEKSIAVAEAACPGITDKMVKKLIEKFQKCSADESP
How it was run: as §1

NEK5 = target: T21, NEK5 (Homo sapiens, UniProt Q6P3R8)
T21 construct: purchased Ambit (DiscoverX) KINOMEscan; Cerep
T21 sequence (Q6P3R8 whole entry): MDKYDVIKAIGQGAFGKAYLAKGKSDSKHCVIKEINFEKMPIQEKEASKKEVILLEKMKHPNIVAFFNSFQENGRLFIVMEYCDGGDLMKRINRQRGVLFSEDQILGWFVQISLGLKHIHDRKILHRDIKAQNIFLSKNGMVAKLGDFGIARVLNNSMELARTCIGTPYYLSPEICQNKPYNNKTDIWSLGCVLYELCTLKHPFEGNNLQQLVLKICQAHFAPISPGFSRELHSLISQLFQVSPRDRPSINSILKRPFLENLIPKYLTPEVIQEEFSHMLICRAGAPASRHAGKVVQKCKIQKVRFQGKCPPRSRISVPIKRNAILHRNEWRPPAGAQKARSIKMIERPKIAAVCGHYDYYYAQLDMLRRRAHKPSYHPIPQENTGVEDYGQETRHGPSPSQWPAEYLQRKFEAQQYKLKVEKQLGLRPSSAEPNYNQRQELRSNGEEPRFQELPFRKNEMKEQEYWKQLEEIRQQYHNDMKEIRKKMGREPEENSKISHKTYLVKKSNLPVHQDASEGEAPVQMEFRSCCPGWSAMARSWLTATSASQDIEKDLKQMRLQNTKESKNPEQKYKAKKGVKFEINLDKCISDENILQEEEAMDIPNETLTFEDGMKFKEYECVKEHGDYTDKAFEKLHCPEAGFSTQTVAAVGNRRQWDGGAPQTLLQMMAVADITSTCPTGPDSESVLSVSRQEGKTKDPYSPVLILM
How it was run: as §1

NLK = target: T22, NLK (Homo sapiens, UniProt Q9UBE8)
T22 construct: purchased Ambit (DiscoverX) KINOMEscan; Cerep
How it was run: as §1

OSR1 = target: T23, OSR1 (Homo sapiens, UniProt O95747)
T23 construct: purchased Ambit (DiscoverX) KINOMEscan; Cerep
How it was run: as §1

PAK6 = target: T24, PAK6 (Homo sapiens, UniProt Q9NQU5)
T24 construct: purchased Ambit (DiscoverX) KINOMEscan; Cerep
How it was run: as §1

PIK3CA(H1047Y) = target: T25, PIK3CA(H1047Y) (Homo sapiens, UniProt P42336, H1047Y)
T25 construct: purchased Ambit (DiscoverX) KINOMEscan; Cerep
How it was run: as §1

PIK3CA(Q546K) = target: T26, PIK3CA(Q546K) (Homo sapiens, UniProt P42336, Q546K)
T26 construct: purchased Ambit (DiscoverX) KINOMEscan; Cerep
How it was run: as §1

PIK3Cd = target: T27, PIK3Cd (Homo sapiens, UniProt O00329)
T27 construct: purchased Ambit (DiscoverX) KINOMEscan; Cerep
How it was run: as §1

PLK2 = target: T28, PLK2 (Homo sapiens, UniProt Q9NYY3)
T28 construct: purchased Ambit (DiscoverX) KINOMEscan; Cerep
How it was run: as §1

PRKCQ = target: T29, PRKCQ (Homo sapiens, UniProt Q04759)
T29 construct: purchased Ambit (DiscoverX) KINOMEscan; Cerep
T29 sequence (Q04759 whole entry): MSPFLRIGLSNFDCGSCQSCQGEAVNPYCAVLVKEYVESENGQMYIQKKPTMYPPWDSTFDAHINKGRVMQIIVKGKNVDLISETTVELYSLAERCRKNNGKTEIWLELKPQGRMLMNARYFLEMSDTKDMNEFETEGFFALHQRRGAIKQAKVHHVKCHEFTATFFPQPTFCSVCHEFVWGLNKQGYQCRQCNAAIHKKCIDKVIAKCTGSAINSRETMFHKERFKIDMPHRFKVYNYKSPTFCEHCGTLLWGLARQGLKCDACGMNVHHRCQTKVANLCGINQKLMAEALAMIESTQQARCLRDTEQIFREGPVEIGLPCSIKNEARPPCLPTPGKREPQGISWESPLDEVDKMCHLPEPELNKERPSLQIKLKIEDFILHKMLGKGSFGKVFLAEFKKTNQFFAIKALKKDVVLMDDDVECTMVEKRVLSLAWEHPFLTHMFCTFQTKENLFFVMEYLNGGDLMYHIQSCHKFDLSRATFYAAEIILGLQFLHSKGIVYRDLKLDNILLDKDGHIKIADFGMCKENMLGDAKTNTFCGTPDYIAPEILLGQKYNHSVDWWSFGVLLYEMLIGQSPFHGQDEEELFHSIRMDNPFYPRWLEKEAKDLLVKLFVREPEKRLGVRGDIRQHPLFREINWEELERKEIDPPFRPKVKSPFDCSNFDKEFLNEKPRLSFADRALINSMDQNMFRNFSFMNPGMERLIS
How it was run: as §1

PRKG1 = target: T30, PRKG1 (Homo sapiens, UniProt Q13976)
T30 construct: purchased Ambit (DiscoverX) KINOMEscan; Cerep
How it was run: as §1

PRKR = target: T31, PRKR (Homo sapiens, UniProt P19525)
T31 construct: purchased Ambit (DiscoverX) KINOMEscan; Cerep
How it was run: as §1

SgK110 = target: T32, SgK110 (Homo sapiens, UniProt P0C264)
T32 construct: purchased Ambit (DiscoverX) KINOMEscan; Cerep
How it was run: as §1

TEC = target: T33, TEC (Homo sapiens, UniProt P42680)
T33 construct: purchased Ambit (DiscoverX) KINOMEscan; Cerep
T33 sequence (P42680 whole entry): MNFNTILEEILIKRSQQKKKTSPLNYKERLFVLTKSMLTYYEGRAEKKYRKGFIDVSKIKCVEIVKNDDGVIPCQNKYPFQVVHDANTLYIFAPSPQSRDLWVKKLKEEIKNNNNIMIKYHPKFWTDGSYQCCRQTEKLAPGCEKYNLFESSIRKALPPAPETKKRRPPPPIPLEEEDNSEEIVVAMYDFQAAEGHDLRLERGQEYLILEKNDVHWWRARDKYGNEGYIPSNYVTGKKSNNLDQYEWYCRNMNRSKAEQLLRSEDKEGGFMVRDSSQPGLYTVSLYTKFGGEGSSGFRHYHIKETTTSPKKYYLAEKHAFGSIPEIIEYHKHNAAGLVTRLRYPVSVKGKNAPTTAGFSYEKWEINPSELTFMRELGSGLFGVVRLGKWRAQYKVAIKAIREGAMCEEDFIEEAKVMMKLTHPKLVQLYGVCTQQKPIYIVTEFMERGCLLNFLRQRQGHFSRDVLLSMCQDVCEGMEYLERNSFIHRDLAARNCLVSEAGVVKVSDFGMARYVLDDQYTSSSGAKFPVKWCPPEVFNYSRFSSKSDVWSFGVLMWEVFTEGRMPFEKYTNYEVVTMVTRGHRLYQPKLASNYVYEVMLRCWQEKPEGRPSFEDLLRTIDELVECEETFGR
How it was run: as §1

ZAP70 = target: T34, ZAP70 (Homo sapiens, UniProt P43403)
T34 construct: purchased Ambit (DiscoverX) KINOMEscan; Cerep
How it was run: as §1

CCCCN1CCN(C(=N)c2cccc(NC(=O)Nc3ccc(S(=O)(=O)NCc4ccc(S(N)(=O)=O)cc4)cc3)c2)CC1 [SC81458, 4-(3-(3-((4-butylpiperazin-1-yl)(imino)methyl)phenyl)ureido)-N-(4-sulfamoylbenzyl) benzenesulfonamide]
remaining binding at 10 µM (ABL1(F317I)): 100% | remaining binding at 10 µM (ABL1(M351T)): 100% | remaining binding at 10 µM (ACVR2a): 100% | remaining binding at 10 µM (ALK): 100% | remaining binding at 10 µM (CDK2): 100% | remaining binding at 10 µM (CIT): 94% | remaining binding at 10 µM (CLK3): 100% | remaining binding at 10 µM (DRAK2): 88% | remaining binding at 10 µM (DYRK1b): 87% | remaining binding at 10 µM (EPHA2): 99% | remaining binding at 10 µM (EPHA6): 92% | remaining binding at 10 µM (EPHB4): 100% | remaining binding at 10 µM (FLT3): 100% | remaining binding at 10 µM (GRK1): 100% | remaining binding at 10 µM (HCK): 100% | remaining binding at 10 µM (ITK): 86% | remaining binding at 10 µM (KIT(V559D, V654A)): 100% | remaining binding at 10 µM (MAP3K3): 100% | remaining binding at 10 µM (MET(M1250T)): 100% | remaining binding at 10 µM (MST4): 100% | remaining binding at 10 µM (NEK5): 100% | remaining binding at 10 µM (NLK): 95% | remaining binding at 10 µM (OSR1): 100% | remaining binding at 10 µM (PAK6): 95% | remaining binding at 10 µM (PIK3CA(H1047Y)): 100% | remaining binding at 10 µM (PIK3CA(Q546K)): 100% | remaining binding at 10 µM (PIK3Cd): 73% | remaining binding at 10 µM (PLK2): 100% | remaining binding at 10 µM (PRKCQ): 100% | remaining binding at 10 µM (PRKG1): 86% | remaining binding at 10 µM (PRKR): 91% | remaining binding at 10 µM (SgK110): 100% | remaining binding at 10 µM (TEC): 90% | remaining binding at 10 µM (ZAP70): 89%
